In one assay the target is T1, human PPARdelta (Homo sapiens, UniProt Q03181).
T1 construct: amino acids S139-Y441; expressed in transfected cells; plasmid pcDNA3
T1 sequence (Q03181 139-441): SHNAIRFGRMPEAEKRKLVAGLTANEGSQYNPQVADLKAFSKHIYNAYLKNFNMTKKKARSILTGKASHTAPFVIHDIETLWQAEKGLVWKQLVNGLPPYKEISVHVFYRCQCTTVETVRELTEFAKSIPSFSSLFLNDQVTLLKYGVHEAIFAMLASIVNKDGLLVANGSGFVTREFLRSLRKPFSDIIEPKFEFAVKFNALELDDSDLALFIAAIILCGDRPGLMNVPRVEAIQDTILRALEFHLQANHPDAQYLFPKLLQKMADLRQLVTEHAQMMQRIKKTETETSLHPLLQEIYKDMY
Description: Cellular PPARdelta assay (HEK luciferase reporter cell line). Type of assay: cell-based. As to conditions: PPARdelta reporter cell line (HEK, GR-GAL4-humanPPARdelta-LBD). The procedure: The potency of substances which bind to human PPARdelta and activate it in an agonistic manner is analyzed using a stably transfected HEK cell line (HEK=human embryo kidney) which is referred to here as PPARdelta reporter cell line. In analogy to the assay described for PPARalpha, the PPARdelta reporter cell line also contains two genetic elements, a luciferase reporter element (pdeltaM-GAL4-Luc-Zeo) and a PPARdelta fusion protein (GR-GAL4-humanPPARdelta-LBD) which mediates expression of the luciferase reporter element depending on a PPARdelta ligand. The stably and constitutively expressed fusion protein GR-GAL4-humanPPARdelta-LBD binds in the cell nucleus of the PPARdelta reporter cell line via the GAL4 protein portion to the GAL4 DNA binding motifs 5′-upstream of the luciferase reporter element which is stably integrated in the genome of the cell line. […] The luciferase which is formed can be detected by means of chemiluminescence via an appropriate substrate. […]
The activity of PPARdelta agonists is determined in a 3-day assay in exact analogy to the procedure already described for the PPARalpha reporter cell line except that the PPARdelta reporter cell line and a specific PPARdelta agonist was used as a standard to control test efficacy.

For a further assay, the target named is T2, human PPARalpha (Homo sapiens, UniProt Q07869).
T2 construct: amino acids S167-Y468; expressed in transfected cells; plasmid pcDNA3
T2 sequence (Q07869 167-468): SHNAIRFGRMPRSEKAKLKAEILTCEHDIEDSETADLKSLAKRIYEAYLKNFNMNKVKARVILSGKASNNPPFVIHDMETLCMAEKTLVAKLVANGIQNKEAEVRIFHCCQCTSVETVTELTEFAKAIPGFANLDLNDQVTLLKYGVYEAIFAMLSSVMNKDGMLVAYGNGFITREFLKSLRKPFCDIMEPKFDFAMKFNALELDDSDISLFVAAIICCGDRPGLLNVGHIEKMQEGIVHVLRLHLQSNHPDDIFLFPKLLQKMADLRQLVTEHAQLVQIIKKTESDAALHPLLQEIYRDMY
Description: Cellular PPARalpha assay (HEK luciferase reporter cell line). Type of assay: cell-based. As to conditions: PPARalpha reporter cell line (HEK, GR-GAL4-humanPPARalpha-LBD). The procedure:
Determination of EC50 Values of PPAR Agonists In the Cellular PPARalpha Assay
The potency of substances which bind to human PPARalpha and activate it in an agonistic manner is analyzed using a stably transfected HEK cell line (HEK=human embryo kidney) which is referred to here as PPARalpha reporter cell line. It contains two genetic elements, a luciferase reporter element (pdeltaM-GAL4-Luc-Zeo) and a PPARalpha fusion protein (GR-GAL4-humanPPARalpha-LBD) which mediates expression of the luciferase reporter element depending on a PPARalpha ligand. The stably and constitutively expressed fusion protein GR-GAL4-humanPPARalpha-LBD binds in the cell nucleus of the PPARalpha reporter cell line via the GAL4 protein portion to the GAL4 DNA binding motifs 5′-upstream of the luciferase reporter element which is stably integrated in the genome of the cell line. There is only weak expression of the luciferase reporter gene in the absence of a PPARalpha ligand if fafty acid-depleted fetal calf serum (cs-FCS) is used in the assay. PPARalpha ligands bind and activate the PPARalpha fusion protein and thereby stimulate the expression of the luciferase reporter gene. The luciferase which is formed can be detected by means of chemiluminescence via an appropriate substrate. […]
The activity of PPARalpha agonists is determined in a 3-day assay which is described below: […]

Assay [1] deals with PPARdelta. As to conditions: diabetic animal model; cited from earlier work.
Assay [2] relates to PPARdelta. As to conditions: obese, insulin resistant rhesus monkeys; cited from earlier work.
The test system of assay [3] is PPARdelta/PPARalpha. The note with it: two weeks clinical trials in healthy volunteers; cited from earlier work.
Assay [4] concerns PPARdelta/PPARalpha. As to conditions: rhesus and cynomolgus monkeys; cited from earlier work.

Read-outs that look alike come from different tables or passages of the source.

In the case of `CCCCc1nc(-c2ccc(C(F)(F)F)cc2)sc1Cn1ccc2cc(OCC(=O)O)cnc21` [Example 1, {1-[4-Butyl-2-(4-trifluoromethyl-phenyl)-thiazol-5-ylmethyl]-1H-pyrrolo[2,3-b]pyridin-5-yloxy}-acetic acid], the EC50 is 470 nM at human PPARdelta and 40 nM at human PPARalpha.

Turning to `CCCCc1nc(-c2ccc(C(F)(F)F)cc2)sc1Cn1ccc2c(CCC)c(OCC(=O)O)cnc21` [Example 2, {1-[4-Butyl-2-(4-trifluoromethyl-phenyl)-thiazol-5-ylmethyl]-4-propyl-1H-pyrrolo[2,3-b]pyridin-5-yloxy}-acetic acid], the values for the concentration for a half-maximal effect (EC50) on human PPARdelta and at human PPARalpha were 140 nM and 320 nM, respectively.

With `CCCc1c(OCCCOc2ccc(OCC(=O)O)cc2)ccc(C(C)=O)c1O` [Example L-165041], the plasma cholesterol result in the assay on PPARdelta [1] is “raises plasma cholesterol”.

In the case of `Cc1cc(SCc2sc(-c3ccc(C(F)(F)F)cc3)nc2C)ccc1OCC(=O)O` [GW501516], in the assay with PPARdelta [2], the HDL-cholesterol entry is recorded as “raises”, the “plasma LDL-cholesterol” value was “decreases”, the plasma insulin levels result was “decreases” and the plasma triglycerides result is reported as “decreases”.

For `CCCc1c(OCCCSc2nnc(SCC(=O)O)s2)ccc(C(C)=O)c1O` [YM-16638], the results for the plasma lipids result in the assay with PPARdelta/PPARalpha [3] and in the assay with PPARdelta/PPARalpha [4] were “acts in a similar manner” and “significantly lowers plasma lipids”, respectively.

These data come from patent US7541464B2, “7-azaindoles, pharmaceutical compositions and their therapeutic applications” (Sanofi-Aventis Deutschland GmbH, priority 2004, dated 2009).
